Patent publication US12509454B2, “Thiadiazolyl derivatives” (IDEAYA Biosciences, Inc., priority 2019, dated 2025)

Target: Pol theta (1-899) (Homo sapiens (Human), UniProt O75417)
Test: Pol theta ATPase activity, NADH oxidation-coupled enzymatic assay
Assay type: biochemical
Conditions: Pol theta (1-899) 10 nM, ATP, dT50 ssDNA, absorbance 340 nm, 10-point dilution series; read-out: ATPase NADH coupling:Standard Screening:hPolQ IC50
Procedure, shortened: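 Pol theta (1-899), 10 nM, preincubated 15 min at RT with 10-point compound series in Tris pH 7.80/KCl/MgCl2 buffer, then given 100 μM ATP plus 300 nM dT50 ssDNA with PK/LDH-coupled NADH oxidation. A340 followed for 30 min; rate slopes fitted with a four-parameter model for IC50.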

Pol theta (1-899), sequence (O75417 1-899): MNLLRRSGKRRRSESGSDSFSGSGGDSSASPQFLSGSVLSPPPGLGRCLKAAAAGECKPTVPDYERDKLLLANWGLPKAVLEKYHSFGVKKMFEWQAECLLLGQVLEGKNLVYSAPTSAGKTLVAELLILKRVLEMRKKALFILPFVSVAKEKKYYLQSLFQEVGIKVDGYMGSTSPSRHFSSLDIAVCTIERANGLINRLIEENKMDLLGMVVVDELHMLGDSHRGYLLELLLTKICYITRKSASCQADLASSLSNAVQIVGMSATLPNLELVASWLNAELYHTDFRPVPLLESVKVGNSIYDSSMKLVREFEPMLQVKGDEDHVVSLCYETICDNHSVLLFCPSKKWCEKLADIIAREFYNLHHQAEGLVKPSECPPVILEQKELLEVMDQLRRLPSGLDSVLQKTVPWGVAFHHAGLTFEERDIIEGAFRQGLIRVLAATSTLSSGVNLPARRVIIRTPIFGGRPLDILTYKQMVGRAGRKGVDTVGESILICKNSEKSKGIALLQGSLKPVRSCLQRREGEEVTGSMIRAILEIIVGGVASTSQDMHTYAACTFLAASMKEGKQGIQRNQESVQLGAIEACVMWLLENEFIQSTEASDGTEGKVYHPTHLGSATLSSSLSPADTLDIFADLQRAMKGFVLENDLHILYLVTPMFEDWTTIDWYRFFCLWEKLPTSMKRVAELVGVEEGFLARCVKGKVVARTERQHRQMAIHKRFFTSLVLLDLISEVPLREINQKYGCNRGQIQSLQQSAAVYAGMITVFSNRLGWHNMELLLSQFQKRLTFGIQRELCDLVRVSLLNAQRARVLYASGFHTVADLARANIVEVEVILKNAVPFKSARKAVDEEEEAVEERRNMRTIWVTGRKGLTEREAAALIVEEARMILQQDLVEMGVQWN

Row | SMILES | IC50
1 | N#Cc1ccccc1-c1cnccc1C(=O)Nc1nnc(OCc2ccc(Cl)cc2)s1 [Example 126, N-(5-((4-chlorobenzyl)oxy)-1,3,4-thiadiazol-2-yl)-3-(2-cyanophenyl)isonicotinamide] | ≤ 0.2 µM
2 | COc1cc(C#N)ccc1-c1cnccc1C(=O)Nc1nnc(OCc2ccc(Cl)cc2)s1 [Example 127, N-(5-((4-chlorobenzyl)oxy)-1,3,4-thiadiazol-2-yl)-3-(4-cyano-2-methoxyphenyl)isonicotinamide] | ≤ 0.2 µM
3 | COc1cccc(OC)c1-c1ccncc1C(=O)Nc1nnc(OCc2ccc(Cl)cc2)s1 [Example 128, N-(5-((4-chlorobenzyl)oxy)-1,3,4-thiadiazol-2-yl)-4-(2,6-dimethoxyphenyl)nicotinamide] | 0.5 to 1 µM
4 | COc1ncccc1-c1ccncc1C(=O)Nc1nnc(OCc2ccc(Cl)cc2)s1 [Example 129, N-(5-((4-chlorobenzyl)oxy)-1,3,4-thiadiazol-2-yl)-2-methoxy-[3,4′-bipyridine]-3′-carboxamide] | 0.2 to 0.5 µM
5 | O=C(Nc1nnc(OCc2ccc(Cl)cc2)s1)c1cnccc1-c1ccccc1OC(F)(F)F [Example 130, N-(5-((4-chlorobenzyl)oxy)-1,3,4-thiadiazol-2-yl)-4-(2-(trifluoromethoxy)phenyl)nicotinamide] | ≤ 0.2 µM
6 | COc1cnccc1-c1cnccc1C(=O)Nc1nnc(OCc2ccc(Cl)cc2)s1 [Example 131, N-(5-((4-chlorobenzyl)oxy)-1,3,4-thiadiazol-2-yl)-3′-methoxy-[3,4′-bipyridine]-4-carboxamide] | ≤ 0.2 µM
7 | O=C(Nc1nnc(OCc2ccc(Cl)cc2)s1)c1cnccc1-c1ccccc1C(F)(F)F [Example 132, N-(5-((4-chlorobenzyl)oxy)-1,3,4-thiadiazol-2-yl)-4-(2-(trifluoromethyl)phenyl)nicotinamide] | ≤ 0.2 µM
8 | COc1ccncc1-c1cnccc1C(=O)Nc1nnc(OCc2ccc(Cl)cc2)s1 [Example 133, N-(5-((4-chlorobenzyl)oxy)-1,3,4-thiadiazol-2-yl)-4′-methoxy-[3,3′-bipyridine]-4-carboxamide] | 0.5 to 1 µM
9 | O=C(Nc1nnc(OCc2ccc(Cl)cc2)s1)c1ccncc1-c1ccccc1OC1COC1 [Example 134, N-[5-[(4-chlorophenyl)methoxy]-1,3,4-thiadiazol-2-yl]-3-[2-(oxetan-3-yloxy)phenyl]pyridine-4-carboxamide] | ≤ 0.2 µM
10 | CCc1ccccc1-c1cnccc1C(=O)Nc1nnc(OCc2ccc(Cl)cc2)s1 [Example 135, N-[5-[(4-chlorophenyl)methoxy]-1,3,4-thiadiazol-2-yl]-3-(2-ethylphenyl)pyridine-4-carboxamide] | ≤ 0.2 µM
11 | O=C(Nc1nnc(OCc2ccc(Cl)cc2)s1)c1ccncc1-c1cccc2c1OCCN2 [Example 136, N-[5-[(4-chlorophenyl)methoxy]-1,3,4-thiadiazol-2-yl]-3-(3,4-dihydro-2H-1,4-benzoxazin-8-yl)pyridine-4-carboxamide] | ≤ 0.2 µM
12 | COc1ccccc1-c1cnc(CC#N)cc1C(=O)Nc1nnc(OCc2ccc(Cl)cc2)s1 [Example 137, N-[5-[(4-chlorophenyl)methoxy]-1,3,4-thiadiazol-2-yl]-2-(cyanomethyl)-5-(2-methoxyphenyl)pyridine-4-carboxamide] | ≤ 0.2 µM
13 | COc1ccccc1-c1cc(C)ncc1C(=O)Nc1nnc(OCc2ccc(Cl)cc2)s1 [Example 138, N-[5-[(4-chlorophenyl)methoxy]-1,3,4-thiadiazol-2-yl]-4-(2-methoxyphenyl)-6-methylpyridine-3-carboxamide] | ≤ 0.2 µM
14 | CN1CCOc2c(-c3cnccc3C(=O)Nc3nnc(OCc4ccc(Cl)cc4)s3)cccc21 [Example 139, N-[5-[(4-chlorophenyl)methoxy]-1,3,4-thiadiazol-2-yl]-3-(4-methyl-2,3-dihydro-1,4-benzoxazin-8-yl)pyridine-4-carboxamide] | ≤ 0.2 µM
15 | Cc1n[nH]c(C)c1-c1cnccc1C(=O)Nc1nnc(OCc2ccc(Cl)cc2)s1 [Example 140, N-[5-[(4-chlorophenyl)methoxy]-1,3,4-thiadiazol-2-yl]-3-(3,5-dimethyl-1H-pyrazol-4-yl)pyridine-4-carboxamide] | ≤ 0.2 µM
16 | COc1ccccc1-c1cnccc1C(=O)Nc1nnc(OCc2ccc(C3(C#N)CC3)cc2)s1 [Example 141, N-(5-[[4-(1-cyanocyclopropyl)phenyl]methoxy]-1,3,4-thiadiazol-2-yl)-3-(2-methoxyphenyl)pyridine-4-carboxamide] | ≤ 0.2 µM
17 | O=C(Nc1nnc(OCc2ccc(Cl)cc2)s1)c1ccncc1N1CCCn2nccc21 [Example 142, N-[5-[(4-chlorophenyl)methoxy]-1,3,4-thiadiazol-2-yl]-3-[5H,6H,7H-pyrazolo[1,5-a]pyrimidin-4-yl]pyridine-4-carboxamide] | ≤ 0.2 µM
18 | O=C(Nc1nnc(OCc2ccc(Cl)cc2)s1)c1ccncc1-c1c(F)cccc1OC1COC1 [Example 143, N-(5-((4-chlorobenzyl)oxy)-1,3,4-thiadiazol-2-yl)-3-(2-fluoro-6-(oxetan-3-yloxy)phenyl)isonicotinamide] | ≤ 0.2 µM

Row | SMILES | IC50
19 | C[C@@H]1COC[C@@H](C)N1c1cnccc1C(=O)Nc1nnc(OCc2ccc(Cl)cc2)s1 [Example 144, N-(5-((4-chlorobenzyl)oxy)-1,3,4-thiadiazol-2-yl)-3-((3R,5R)-3,5-dimethylmorpholino)isonicotinamide] | ≤ 0.2 µM
20 | COc1ccccc1-c1cnccc1C(=O)Nc1nnc(OCc2cccc3[nH]cnc23)s1 [Example 145, N-[5-(1H-1,3-benzodiazol-4-ylmethoxy)-1,3,4-thiadiazol-2-yl]-3-(2-methoxyphenyl)pyridine-4-carboxamide] | ≤ 0.2 µM
21 | COc1ccccc1-c1cnccc1C(=O)Nc1nnc(OCc2ccc(Cl)c3c2cnn3C)s1 [Example 146, N-[5-[(7-chloro-1-methylindazol-4-yl)methoxy]-1,3,4-thiadiazol-2-yl]-3-(2-methoxyphenyl)pyridine-4-carboxamide] | ≤ 0.2 µM
22 | O=C(Nc1nnc(OCc2ccc(Cl)cc2)s1)c1cc(C#CCO)ncc1-c1ccccc1OC(F)F [Example 147, N-[5-[(4-chlorophenyl)methoxy]-1,3,4-thiadiazol-2-yl]-5-[2-(difluoromethoxy)phenyl]-2-(3-hydroxyprop-1-yn-1-yl)pyridine-4-carboxamide] | ≤ 0.2 µM
23 | COc1ccccc1-c1cnc(F)cc1C(=O)Nc1nnc(OCc2ccc(Cl)cc2)s1 [Example 148, N-(5-((4-chlorobenzyl)oxy)-1,3,4-thiadiazol-2-yl)-2-fluoro-5-(2-methoxyphenyl)isonicotinamide] | ≤ 0.2 µM
24 | COc1ccccc1-n1cncc1C(=O)Nc1nnc(OCc2ccc(C3CC3)cc2)s1 [Example 149, N-(5-((4-cyclopropylbenzyl)oxy)-1,3,4-thiadiazol-2-yl)-1-(2-methoxyphenyl)-1H-imidazole-5-carboxamide] | ≤ 0.2 µM
25 | O=C(Nc1nnc(OCc2ccc(Cl)cc2)s1)c1cccnc1-c1ccccc1Cl [Example 150, N-(5-((4-chlorobenzyl)oxy)-1,3,4-thiadiazol-2-yl)-2-(2-chlorophenyl)nicotinamide] | 0.2 to 0.5 µM
26 | COc1ccccc1-c1cnc(C#N)cc1C(=O)Nc1nnc(OCc2ccc(Cl)cc2)s1 [Example 151, N-(5-((4-chlorobenzyl)oxy)-1,3,4-thiadiazol-2-yl)-2-cyano-5-(2-methoxyphenyl)isonicotinamide] | ≤ 0.2 µM
27 | COc1ccccc1-c1cc(C(=O)O)ncc1C(=O)Nc1nnc(OCc2ccc(Br)cc2)s1 [Example 152, 5-([5-[(4-bromophenyl)methoxy]-1,3,4-thiadiazol-2-yl]carbamoyl)-4-(2-methoxyphenyl)pyridine-2-carboxylic acid] | ≤ 0.2 µM
28 | COc1ccccc1-c1ccncc1C(=O)Nc1nnc(OCc2ccc(Br)cc2)s1 [Example 153, N-[5-[(4-bromophenyl)methoxy]-1,3,4-thiadiazol-2-yl]-4-(2-methoxyphenyl)pyridine-3-carboxamide] | ≤ 0.2 µM
29 | COc1ccccc1-c1cc(C#N)ncc1C(=O)Nc1nnc(OCCC2CC2)s1 [Example 154, 6-cyano-N-(5-(2-cyclopropylethoxy)-1,3,4-thiadiazol-2-yl)-4-(2-methoxyphenyl)nicotinamide] | ≤ 0.2 µM
30 | COc1cc(F)ccc1-c1ccncc1C(=O)Nc1nnc(OCc2ccc(Cl)cc2)s1 [Example 155, N-[5-[(4-chlorophenyl)methoxy]-1,3,4-thiadiazol-2-yl]-4-(4-fluoro-2-methoxyphenyl)pyridine-3-carboxamide] | ≤ 0.2 µM
31 | COc1ccccc1-c1cc(C(F)(F)F)ncc1C(=O)Nc1nnc(OCc2ccc(Cl)cc2)s1 [Example 156, N-[5-[(4-chlorophenyl)methoxy]-1,3,4-thiadiazol-2-yl]-4-(2-methoxyphenyl)-6-(trifluoromethyl)pyridine-3-carboxamide] | ≤ 0.2 µM
32 | COc1ccccc1-c1cnccc1C(=O)Nc1nnc(OCc2cccc(Cl)c2)s1 [Example 157, N-(5-((3-chlorobenzyl)oxy)-1,3,4-thiadiazol-2-yl)-3-(2-methoxyphenyl)isonicotinamide] | ≤ 0.2 µM
33 | COc1ccccc1-c1cnccc1C(=O)Nc1nnc(OCc2ccc(Cl)c(Cl)c2)s1 [Example 158, N-[5-[(3,4-dichlorophenyl)methoxy]-1,3,4-thiadiazol-2-yl]-3-(2-methoxyphenyl)pyridine-4-carboxamide] | ≤ 0.2 µM
34 | COc1c(C#N)cccc1-c1cnccc1C(=O)Nc1nnc(OCc2ccc(Cl)cc2)s1 [Example 159, N-(5-((4-chlorobenzyl)oxy)-1,3,4-thiadiazol-2-yl)-3-(3-cyano-2-methoxyphenyl)isonicotinamide] | ≤ 0.2 µM
35 | COc1cc(C(=O)Nc2nnc(OCc3ccc(Cl)cc3)s2)c(-c2ccccc2OC)cn1 [Example 160, N-(5-((4-chlorobenzyl)oxy)-1,3,4-thiadiazol-2-yl)-2-methoxy-5-(2-methoxyphenyl)isonicotinamide] | ≤ 0.2 µM
